This data set deals with TMEM63B. In words: reporter assay of Huesken 2005. Particulars: siRNA. (In general: Reporter assays use an easily measured gene product as a stand-in for the process of interest.)

Oligonucleotides are given in HELM: sugar(base)linkage, 5' to 3'; d 2'-deoxyribose, r ribose, m 2'-O-methylribose, p phosphate. ss, as = sense and antisense strand
Also: test concentration or dose not given here.

With “RNA1{r(C)p.r(A)p.r(U)p.r(C)p.r(C)p.r(C)p.r(A)p.r(A)p.r(G)p.r(A)p.r(U)p.r(G)p.r(A)p.r(G)p.r(G)p.r(A)p.r(G)p.r(U)p.r(U)p.d(T)p.d(T)}|RNA2{r(A)p.r(A)p.r(C)p.r(U)p.r(C)p.r(C)p.r(U)p.r(C)p.r(A)p.r(U)p.r(C)p.r(U)p.r(U)p.r(G)p.r(G)p.r(G)p.r(A)p.r(U)p.r(G)p.d(A)p.d(G)}$$$RNA1{StrandType:ss}|RNA2{StrandType:as}$”, the normalised inhibition (eCFP-eYFP dual reporter) is 53%. The figure for “RNA1{r(U)p.r(G)p.r(A)p.r(C)p.r(C)p.r(A)p.r(A)p.r(A)p.r(G)p.r(G)p.r(G)p.r(A)p.r(C)p.r(A)p.r(A)p.r(U)p.r(G)p.r(G)p.r(U)p.d(T)p.d(T)}|RNA2{r(A)p.r(C)p.r(C)p.r(A)p.r(U)p.r(U)p.r(G)p.r(U)p.r(C)p.r(C)p.r(C)p.r(U)p.r(U)p.r(U)p.r(G)p.r(G)p.r(U)p.r(C)p.r(A)p.d(A)p.d(A)}$$$RNA1{StrandType:ss}|RNA2{StrandType:as}$” is 70.9%; for “RNA1{r(G)p.r(C)p.r(U)p.r(A)p.r(U)p.r(G)p.r(C)p.r(A)p.r(C)p.r(G)p.r(G)p.r(G)p.r(G)p.r(A)p.r(C)p.r(A)p.r(G)p.r(C)p.r(C)p.d(T)p.d(T)}|RNA2{r(G)p.r(G)p.r(C)p.r(U)p.r(G)p.r(U)p.r(C)p.r(C)p.r(C)p.r(C)p.r(G)p.r(U)p.r(G)p.r(C)p.r(A)p.r(U)p.r(A)p.r(G)p.r(C)p.d(T)p.d(G)}$$$RNA1{StrandType:ss}|RNA2{StrandType:as}$” it is 73.2%. Substance “RNA1{r(A)p.r(G)p.r(A)p.r(G)p.r(A)p.r(G)p.r(G)p.r(A)p.r(A)p.r(G)p.r(A)p.r(A)p.r(G)p.r(G)p.r(C)p.r(C)p.r(G)p.r(A)p.r(G)p.d(T)p.d(T)}|RNA2{r(C)p.r(U)p.r(C)p.r(G)p.r(G)p.r(C)p.r(C)p.r(U)p.r(U)p.r(C)p.r(U)p.r(U)p.r(C)p.r(C)p.r(U)p.r(C)p.r(U)p.r(C)p.r(U)p.d(G)p.d(C)}$$$RNA1{StrandType:ss}|RNA2{StrandType:as}$” gave a normalised inhibition (eCFP-eYFP dual reporter) of 49.4%.

Consider “RNA1{r(G)p.r(U)p.r(C)p.r(C)p.r(C)p.r(C)p.r(A)p.r(A)p.r(A)p.r(U)p.r(C)p.r(U)p.r(G)p.r(C)p.r(G)p.r(A)p.r(A)p.r(A)p.r(U)p.d(T)p.d(T)}|RNA2{r(A)p.r(U)p.r(U)p.r(U)p.r(C)p.r(G)p.r(C)p.r(A)p.r(G)p.r(A)p.r(U)p.r(U)p.r(U)p.r(G)p.r(G)p.r(G)p.r(G)p.r(A)p.r(C)p.d(A)p.d(G)}$$$RNA1{StrandType:ss}|RNA2{StrandType:as}$”, for which the normalised inhibition (eCFP-eYFP dual reporter) was 82%. In turn, “RNA1{r(U)p.r(G)p.r(G)p.r(U)p.r(G)p.r(C)p.r(U)p.r(U)p.r(C)p.r(U)p.r(C)p.r(G)p.r(G)p.r(C)p.r(C)p.r(C)p.r(U)p.r(C)p.r(C)p.d(T)p.d(T)}|RNA2{r(G)p.r(G)p.r(A)p.r(G)p.r(G)p.r(G)p.r(C)p.r(C)p.r(G)p.r(A)p.r(G)p.r(A)p.r(A)p.r(G)p.r(C)p.r(A)p.r(C)p.r(C)p.r(A)p.d(C)p.d(A)}$$$RNA1{StrandType:ss}|RNA2{StrandType:as}$” had a normalised inhibition (eCFP-eYFP dual reporter) of 65.1%. As for “RNA1{r(G)p.r(G)p.r(C)p.r(C)p.r(A)p.r(A)p.r(G)p.r(C)p.r(U)p.r(G)p.r(G)p.r(A)p.r(C)p.r(A)p.r(A)p.r(G)p.r(A)p.r(A)p.r(G)p.d(T)p.d(T)}|RNA2{r(C)p.r(U)p.r(U)p.r(C)p.r(U)p.r(U)p.r(G)p.r(U)p.r(C)p.r(C)p.r(A)p.r(G)p.r(C)p.r(U)p.r(U)p.r(G)p.r(G)p.r(C)p.r(C)p.d(G)p.d(G)}$$$RNA1{StrandType:ss}|RNA2{StrandType:as}$”, the figure is 65%; as for “RNA1{r(G)p.r(G)p.r(C)p.r(C)p.r(U)p.r(G)p.r(C)p.r(U)p.r(C)p.r(A)p.r(U)p.r(G)p.r(U)p.r(A)p.r(C)p.r(A)p.r(U)p.r(G)p.r(A)p.d(T)p.d(T)}|RNA2{r(U)p.r(C)p.r(A)p.r(U)p.r(G)p.r(U)p.r(A)p.r(C)p.r(A)p.r(U)p.r(G)p.r(A)p.r(G)p.r(C)p.r(A)p.r(G)p.r(G)p.r(C)p.r(C)p.d(T)p.d(G)}$$$RNA1{StrandType:ss}|RNA2{StrandType:as}$”, 71.9%.

Values taken from the OligoGym collection.
